In patent publication US20250011878A1, “METHOD TO DETECT RNA BIOMARKERS” (ITALFARMACO SPA, priority 2021, published 2025):
Where two headings read alike, the source gives them in different places.

Legend:
[1] = mouse, in vivo, 1000 mg/kg
[2] = tested on: PD-L1; assay: PD-L1 surface expression on human monocytes stimulated with TNF-α; type: cell-based
[3] = tested on: PBMC; assay: Quantitative real-time PCR gene modulation in PBMC; type: cell-based, human; details: PBMC treated with 1 μM ITF3756, 4 hours; qPCR vs vehicle-treated cells
Procedure: The gene expression has been determined by comparing the expression of the above genes in the treated cells versus vehicle-treated cells. PBMC were resuspended in RPMI 1640 medium (Dutch modified, ThermoFisher) at the density of 1×10^6 cells/ml. Cells were plated in 6-well plates (Corning), 3 ml per well. Cells were treated with […] at four concentrations: 0.25, 0.5, 1 and 2 μM. Each treatment concentration was replicated in 3 wells for experimental triplicate test. Vehicle (DMSO 0.05%) treated cells were plated at the same density and volumes. Plates were incubated for 4 hours at 37° C. 5% C02. At the end of treatment incubation cells were collected for total RNA extraction. After treatment with the test compound, PBMC were withdrawn from 6-well plates and collected in 15 ml tubes (Falcon). Wells were washed once with 1 ml of PBS pH 7.4 (ThermoFisher) and the wash volume was added to the collected cell suspensions. […] RNA concentration was determined using Nano Drop 1000 spectrophotometer. […] 3 μl of cDNA corresponding to 40 ng of template were added to PCR reaction reagent for a total volume of 15 μl as shown below: The level of mRNA expression modulation was evaluated comparing the mRNA level in treated versus not-treated samples; all data were normalized versus the average expression signal of three housekeeping genes (reference genes: UBC, B2M and HPRT1) in the corresponding samples. […]

[4] = rat, in vivo, 1000 mg/kg
[5] = dog, in vivo, 1000 mg/kg
[6] = tested on: macrophages; assay: in vitro macrophage differentiation in the presence of ITF3756; type: cell-based
[7] = tested on: CT26 tumor cells; assay: CT26 tumor volume in BALB/c mice, responders and non-responders; type: in vivo; details: CT26 s.c. in BALB/c mice, treatment day 10 to day 20; three groups of animals with different tumor reduction
Procedure: Adult BALB/c mice were injected s.c. with 1×10^6 CT26 tumor cells (diluted to 100 μl with phosphate buffered saline) and treated with anti-PD1 or ITF3756 when the tumor volume reached 75-100 mm^3, to explore the modulation of genes in the tumor microenvironment by RNAseq. Since ITF3756 acts on the PD-1/PD-L1 axis, this approach allows the identification of genes specific and common to both treatments. The overall schedule is described in Table 9.
Responders and non-responders were selected based on tumor volume at day 20. The volume of the tumor at the beginning of the treatments (day 10) was on average about 75 mm^3. Based on this value of tumor volume, we classified the animals according to the following criteria: • Animals with tumor volume lower or equal to 75 mm^3 were considered RESPONDERS (R) • Animals with tumor volume greater than 75 mm^3 were considered NON RESPONDERS (NR)

O=C(NO)c1ccc(Cn2nnnc2-c2cccs2)cc1 [ITF3756, N-hydroxy-4-((5-(thiophen-2-yl)-1 H-tetrazol-1-yl)methyl)benzamide]
tolerability [1]: well tolerated
surface expression of PD-L1 (upregulation by TNF-α) [2]: inhibited
IRF6 gene modulation [3]: upregulation
STAB1 gene modulation [3]: downmodulation
tolerability [4]: well tolerated
tolerability [5]: well tolerated
M1 macrophages [6]: increase in M1 macrophages
tumor response (tumor volume) [7]: heterogeneous response
